From paper PMC6253998, “Ring-substituted 4-Hydroxy-1H-quinolin-2-ones: Preparation and Biological Activity” (Molecules, 2009)

Test system: not listed separately
Test: Lipophilicity HPLC determination (capacity factor k / log k)
Type: physicochemical
Settings: RP-HPLC, C18 column, MeOH 55.0% / H2O 45.0%, isocratic
Method: Hydrophobicities (log P/Clog P values) of the compounds 1-12 were calculated using two commercially available programs and also measured by means of the reversed phase high performance liquid chromatography (RP-HPLC) method for lipophilicity measurement. The procedure was performed under isocratic conditions with methanol as an organic modifier in the mobile phase using an end-capped non-polar C18 stationary RP column. The capacity factors k were determined and subsequent log k values were calculated.
The HPLC separation module Waters Alliance 2695 XE and Waters Photodiode Array Detector 2996 (Waters Corp., Milford, MA, U.S.A.) were used. A Symmetry® C18 5 μm, 4.6 × 250 mm, Part No. WAT054275, (Waters Corp., Milford, MA, U.S.A.) chromatographic column was used. The HPLC separation process was monitored by Millennium32® Chromatography Manager Software, Waters 2004 (Waters Corp., Milford, MA, U.S.A.). The mixture of MeOH p.a. (55.0%) and H2O-HPLC – Mili-Q Grade (45.0%) was used as a mobile phase. The total flow of the column was 0.9 mL/min, injection 30 μL, column temperature 30 °C and sample temperature 10 °C. The detection wavelength 210 nm was chosen. The KI methanolic solution was used for the dead time (TD) determination. Retention times (tR) were measured in minutes. The capacity factors k were calculated using the Millennium32® Chromatography Manager Software according to formula k = (tR - tD) / tD, where tR is the retention time of the solute, whereas tD denotes the dead time obtained via an unretained analyte. Log k, calculated from the capacity factor k, is used as the lipophilicity index converted to log P scale.

Row | SMILES | log k
1 | O=C(O)c1c(O)c2ccccc2[nH]c1=O [Compound 10, 4-Hydroxy-2-oxo-1,2-dihydroquinoline-3-carboxylic acid] | 0.0118
2 | O=c1[nH]c2ccccc2c(O)c1[N+](=O)[O-] [Compound 5, 4-Hydroxy-3-nitroquinolin-2(1H)-one] | 0.4052

Test system: spinach chloroplasts
Test: Inhibition of oxygen evolution rate (OER) / photosynthetic electron transport in spinach chloroplasts
Type: biochemical, Spinacia oleracea L.
Settings: not given
Method: Chloroplasts were prepared from spinach (Spinacia oleracea L.) according to Masarovicova and Kralova. The inhibition of photosynthetic electron transport (PET) in spinach chloroplasts was determined spectrophotometrically (Genesys 6, Thermo Scientific, U.S.A.) using an artificial electron acceptor 2,6-dichlorophenol-indophenol (DCPIP) according to Kralova et al. and the rate of photosynthetic electron transport was monitored as a photoreduction of DCPIP. The measurements were carried out in phosphate buffer (0.02 mol/L, pH 7.2) containing sucrose (0.4 mol/L), MgCl2 (0.005 mol/L) and NaCl (0.015 mol/L). The chlorophyll content was 30 mg/L in these experiments and the samples were irradiated (~100 W/m^2) from 10 cm distance with a halogen lamp (250 W) using a 4 cm water filter to prevent warming of the samples (suspension temperature 22 °C). The studied compounds were dissolved in DMSO due to their limited water solubility. […] The inhibitory efficiency of the studied compounds was expressed by IC50 values, i.e. by molar concentration of the compounds causing 50% decrease in the oxygen evolution rate relative to the untreated control.

Row | SMILES | OER inhibition effectiveness relative to compound 1
3 | O=c1[nH]c2ccccc2c(O)c1[N+](=O)[O-] [Compound 5, 4-Hydroxy-3-nitroquinolin-2(1H)-one] | approximately twice as effective as compound 1

Same assay, conditions: DCPIP photoreduction, pH 7.2

Row | SMILES | IC50
4 | O=C(O)c1c(O)c2ccccc2[nH]c1=O [Compound 10, 4-Hydroxy-2-oxo-1,2-dihydroquinoline-3-carboxylic acid] | 567 µM
5 | O=c1[nH]c2ccccc2c(O)c1[N+](=O)[O-] [Compound 5, 4-Hydroxy-3-nitroquinolin-2(1H)-one] | 510 µM

Test system: Trichosporon beigelii 1188
Test: In vitro antifungal broth microdilution test
Type: cell-based
Settings: Trichosporon beigelii, 1188; 24h, RPMI 1640, pH 7.0, 35 °C; read-out: MIC/IC80 TB
Method: The broth microdilution test was used for the assessment of in vitro antifungal activity of the synthesized compounds against Candida albicans ATCC 44859 (CA), Candida tropicalis 156 (CT), Candida krusei ATCC 6258 (CK), Candida glabrata 20/I (CG), Trichosporon beigelii 1188 (TB), Aspergillus fumigatus 231 (AF), Absidia corymbifera 272 (AC), and Trichophyton mentagrophytes 445 (TM). Fluconazole (FLU) was used as the standard of a clinically used antimycotic drug. The procedure was performed with twofold dilution of the compounds in RPMI 1640 (Sevapharma a.s., Prague, Czech Republic) buffered to pH 7.0 with 0.165 mol of 3-morpholino-propane-1-sulfonic acid (MOPS, Sigma, Germany). The final concentrations of the compounds ranged from 500 to 0.975 μmol/l. Drug–free controls were included. The MIC was defined as an 80% or greater (IC80) reduction of growth in comparison with the control. The values of MICs were determined after 24 and 48 h of static incubation at 35 °C. For T. mentagrophytes, the final MICs were determined after 72 and 120 h of incubation.

Row | SMILES | MIC
6 | O=C(O)c1c(O)c2ccccc2[nH]c1=O [Compound 10, 4-Hydroxy-2-oxo-1,2-dihydroquinoline-3-carboxylic acid] | > 500 µM
7 | O=c1[nH]c2ccccc2c(O)c1[N+](=O)[O-] [Compound 5, 4-Hydroxy-3-nitroquinolin-2(1H)-one] | > 500 µM

Same assay, conditions: Trichosporon beigelii, 1188; 48h, RPMI 1640, pH 7.0, 35 °C; read-out: MIC/IC80 TB

Row | SMILES | MIC
8 | O=C(O)c1c(O)c2ccccc2[nH]c1=O [Compound 10, 4-Hydroxy-2-oxo-1,2-dihydroquinoline-3-carboxylic acid] | > 500 µM
9 | O=c1[nH]c2ccccc2c(O)c1[N+](=O)[O-] [Compound 5, 4-Hydroxy-3-nitroquinolin-2(1H)-one] | > 500 µM

Test system: Aspergillus fumigatus 231
Test: In vitro antifungal broth microdilution test
Type: cell-based
Settings: Aspergillus fumigatus, 231; 24h, RPMI 1640, pH 7.0, 35 °C; read-out: MIC/IC80 AF
Method: (§1) Fluconazole (FLU) was used as the standard of a clinically used antimycotic drug. The procedure was performed with twofold dilution of the compounds in […]., Prague, Czech Republic) buffered to pH 7.0 with 0.165 mol of 3-morpholino-propane-1-sulfonic acid (MOPS, Sigma, Germany). […] Drug-free controls were included. The MIC was defined as an 80% or greater (IC80) reduction of growth in comparison with the control.

Row | SMILES | MIC
10 | O=C(O)c1c(O)c2ccccc2[nH]c1=O [Compound 10, 4-Hydroxy-2-oxo-1,2-dihydroquinoline-3-carboxylic acid] | > 500 µM
11 | O=c1[nH]c2ccccc2c(O)c1[N+](=O)[O-] [Compound 5, 4-Hydroxy-3-nitroquinolin-2(1H)-one] | > 500 µM

Same assay, conditions: Aspergillus fumigatus, 231; 48h, RPMI 1640, pH 7.0, 35 °C; read-out: MIC/IC80 AF

Row | SMILES | MIC
12 | O=C(O)c1c(O)c2ccccc2[nH]c1=O [Compound 10, 4-Hydroxy-2-oxo-1,2-dihydroquinoline-3-carboxylic acid] | > 500 µM
13 | O=c1[nH]c2ccccc2c(O)c1[N+](=O)[O-] [Compound 5, 4-Hydroxy-3-nitroquinolin-2(1H)-one] | > 500 µM

Test system: Candida glabrata 20/I
Test: In vitro antifungal broth microdilution test
Type: cell-based
Settings: Nakaseomyces glabratus, 20/I; 24h, RPMI 1640, pH 7.0, 35 °C; read-out: MIC/IC80 CG
Method: as §1

Row | SMILES | MIC
14 | O=C(O)c1c(O)c2ccccc2[nH]c1=O [Compound 10, 4-Hydroxy-2-oxo-1,2-dihydroquinoline-3-carboxylic acid] | > 500 µM
15 | O=c1[nH]c2ccccc2c(O)c1[N+](=O)[O-] [Compound 5, 4-Hydroxy-3-nitroquinolin-2(1H)-one] | > 500 µM

Same assay, conditions: Nakaseomyces glabratus, 20/I; 48h, RPMI 1640, pH 7.0, 35 °C; read-out: MIC/IC80 CG

Row | SMILES | MIC
16 | O=C(O)c1c(O)c2ccccc2[nH]c1=O [Compound 10, 4-Hydroxy-2-oxo-1,2-dihydroquinoline-3-carboxylic acid] | > 500 µM
17 | O=c1[nH]c2ccccc2c(O)c1[N+](=O)[O-] [Compound 5, 4-Hydroxy-3-nitroquinolin-2(1H)-one] | > 500 µM

Test system: Candida krusei ATCC 6258
Test: In vitro antifungal broth microdilution test
Type: cell-based
Settings: Pichia kudriavzevii, ATCC6258; 24h, RPMI 1640, pH 7.0, 35 °C; read-out: MIC/IC80 CK
Method: as §1

Row | SMILES | MIC
18 | O=C(O)c1c(O)c2ccccc2[nH]c1=O [Compound 10, 4-Hydroxy-2-oxo-1,2-dihydroquinoline-3-carboxylic acid] | > 500 µM
19 | O=c1[nH]c2ccccc2c(O)c1[N+](=O)[O-] [Compound 5, 4-Hydroxy-3-nitroquinolin-2(1H)-one] | > 500 µM

Same assay, conditions: Pichia kudriavzevii, ATCC6258; 48h, RPMI 1640, pH 7.0, 35 °C; read-out: MIC/IC80 CK

Row | SMILES | MIC
20 | O=C(O)c1c(O)c2ccccc2[nH]c1=O [Compound 10, 4-Hydroxy-2-oxo-1,2-dihydroquinoline-3-carboxylic acid] | > 500 µM
21 | O=c1[nH]c2ccccc2c(O)c1[N+](=O)[O-] [Compound 5, 4-Hydroxy-3-nitroquinolin-2(1H)-one] | > 500 µM

Test system: Candida tropicalis 156
Test: In vitro antifungal broth microdilution test
Type: cell-based
Settings: Candida tropicalis, 156; 24h, RPMI 1640, pH 7.0, 35 °C; read-out: MIC/IC80 CT
Method: as §1

Row | SMILES | MIC
22 | O=C(O)c1c(O)c2ccccc2[nH]c1=O [Compound 10, 4-Hydroxy-2-oxo-1,2-dihydroquinoline-3-carboxylic acid] | > 500 µM
23 | O=c1[nH]c2ccccc2c(O)c1[N+](=O)[O-] [Compound 5, 4-Hydroxy-3-nitroquinolin-2(1H)-one] | > 500 µM

Same assay, conditions: Candida tropicalis, 156; 48h, RPMI 1640, pH 7.0, 35 °C; read-out: MIC/IC80 CT

Row | SMILES | MIC
24 | O=C(O)c1c(O)c2ccccc2[nH]c1=O [Compound 10, 4-Hydroxy-2-oxo-1,2-dihydroquinoline-3-carboxylic acid] | > 500 µM
25 | O=c1[nH]c2ccccc2c(O)c1[N+](=O)[O-] [Compound 5, 4-Hydroxy-3-nitroquinolin-2(1H)-one] | > 500 µM

Test system: Candida albicans ATCC 44859
Test: In vitro antifungal broth microdilution test
Type: cell-based
Settings: Candida albicans, ATCC44859; 24h, RPMI 1640, pH 7.0, 35 °C; read-out: MIC/IC80 CA
Method: as §1

Row | SMILES | MIC
26 | O=C(O)c1c(O)c2ccccc2[nH]c1=O [Compound 10, 4-Hydroxy-2-oxo-1,2-dihydroquinoline-3-carboxylic acid] | > 500 µM
27 | O=c1[nH]c2ccccc2c(O)c1[N+](=O)[O-] [Compound 5, 4-Hydroxy-3-nitroquinolin-2(1H)-one] | > 500 µM

Same assay, conditions: Candida albicans, ATCC44859; 48h, RPMI 1640, pH 7.0, 35 °C; read-out: MIC/IC80 CA

Row | SMILES | MIC
28 | O=C(O)c1c(O)c2ccccc2[nH]c1=O [Compound 10, 4-Hydroxy-2-oxo-1,2-dihydroquinoline-3-carboxylic acid] | > 500 µM
29 | O=c1[nH]c2ccccc2c(O)c1[N+](=O)[O-] [Compound 5, 4-Hydroxy-3-nitroquinolin-2(1H)-one] | > 500 µM

Test system: Trichophyton mentagrophytes 445
Test: In vitro antifungal broth microdilution test
Type: cell-based
Settings: Trichophyton mentagrophytes, 445; 72h, RPMI 1640, pH 7.0, 35 °C; read-out: MIC/IC80 TM
Method: as §1

Row | SMILES | MIC
30 | O=C(O)c1c(O)c2ccccc2[nH]c1=O [Compound 10, 4-Hydroxy-2-oxo-1,2-dihydroquinoline-3-carboxylic acid] | > 500 µM
31 | O=c1[nH]c2ccccc2c(O)c1[N+](=O)[O-] [Compound 5, 4-Hydroxy-3-nitroquinolin-2(1H)-one] | > 500 µM

Same assay, conditions: Trichophyton mentagrophytes, 445; 120h, RPMI 1640, pH 7.0, 35 °C; read-out: MIC/IC80 TM

Row | SMILES | MIC
32 | O=C(O)c1c(O)c2ccccc2[nH]c1=O [Compound 10, 4-Hydroxy-2-oxo-1,2-dihydroquinoline-3-carboxylic acid] | > 500 µM
33 | O=c1[nH]c2ccccc2c(O)c1[N+](=O)[O-] [Compound 5, 4-Hydroxy-3-nitroquinolin-2(1H)-one] | > 500 µM

Test system: Absidia corymbifera 272
Test: In vitro antifungal broth microdilution test
Type: cell-based
Settings: Lichtheimia corymbifera, 272; 24h, RPMI 1640, pH 7.0, 35 °C; read-out: MIC/IC80 AC
Method: as §1

Row | SMILES | MIC
34 | O=C(O)c1c(O)c2ccccc2[nH]c1=O [Compound 10, 4-Hydroxy-2-oxo-1,2-dihydroquinoline-3-carboxylic acid] | > 500 µM
35 | O=c1[nH]c2ccccc2c(O)c1[N+](=O)[O-] [Compound 5, 4-Hydroxy-3-nitroquinolin-2(1H)-one] | > 500 µM

Same assay, conditions: Lichtheimia corymbifera, 272; 48h, RPMI 1640, pH 7.0, 35 °C; read-out: MIC/IC80 AC

Row | SMILES | MIC
36 | O=C(O)c1c(O)c2ccccc2[nH]c1=O [Compound 10, 4-Hydroxy-2-oxo-1,2-dihydroquinoline-3-carboxylic acid] | > 500 µM
37 | O=c1[nH]c2ccccc2c(O)c1[N+](=O)[O-] [Compound 5, 4-Hydroxy-3-nitroquinolin-2(1H)-one] | > 500 µM
